These results are taken from article PMC9151520 (Archives of Toxicology, 2022).

Where two headings read alike, the source gives them in different places.

Experiment [1] relates to p53 signaling (p53RE-bla HCT-116 cells). The experiment in a line: cells. Format: cell-based.
The test system is the same in experiment [2].
For experiment [3] the test system is unchanged. The source holds these as a separate data set.
Where [4] appears, read: read-out: p53 activation EC50, primary screening.
The mark [5] stands for this setting: Homo sapiens, HCT-116, read-out: p53 activation EC50, cherry pick confirmation.
Setting [6] is: Homo sapiens, HCT-116, read-out: p53 activation EC50, primary screening.
[7] abbreviates: Homo sapiens, HCT-116, read-out: p53 activation efficacy, cherry pick confirmation.
Where [8] appears, read: Homo sapiens, HCT-116, read-out: p53 activation efficacy, primary screening.

For orientation: EC50 means the concentration that produces a half-maximal response. Turning to `c1cc(N(CC2CO2)CC2CO2)ccc1OCC1CO1` (stereo not drawn) [4-(Diglycidylamino)phenyl glycidyl ether], in experiment [1], the “p53 activation efficacy, cherry pick confirmation” value turned out to be 85.4543 and the “p53 activation efficacy, primary screening” value is reported as 57.856. In experiment [1] (read-out: p53 activation EC50, cherry pick confirmation), the EC50 came to 23.5 µM. Moreover, the EC50 in experiment [1] (setting [4]) amounted to 27.3 µM. In experiment [2], the “p53 activation EC50, cherry pick confirmation” value was “inactive”; the “p53 activation EC50, primary screening” value is “inactive”; the “p53 activation efficacy, cherry pick confirmation” value is “inactive”; the “p53 activation efficacy, primary screening” value is “inactive”. In addition, in experiment [3], the “p53 activation EC50, cherry pick confirmation” value was “inactive”; the “p53 activation EC50, primary screening” value is “inactive”; the “p53 activation efficacy, cherry pick confirmation” value was “inactive”; the “p53 activation efficacy, primary screening” value was “inactive”. In addition, in the experiment on p53RE-bla HCT-116 cells, the “Viability EC50, cherry pick confirmation” value was “inactive”; the “Viability EC50, primary screening” value is “inactive”; the “Viability efficacy, cherry pick confirmation” value was “inactive”; the “Viability efficacy, primary screening” value was “inactive”.

As for `COc1ccc(C(=O)/C(Br)=C\C(=O)[O-])cc1.[Na+]` [Cytembena], in experiment [1], the “p53 activation EC50, cherry pick confirmation” value is “inactive”; the “p53 activation efficacy, cherry pick confirmation” value is “inactive”; the “p53 activation efficacy, primary screening” value was found to be 55.202. The EC50 in experiment [1] (setting [4]) came out at 21 µM. For the same compound, in experiment [2], the “p53 activation EC50, cherry pick confirmation” value is “inactive”; the “p53 activation EC50, primary screening” value was “inactive”; the “p53 activation efficacy, cherry pick confirmation” value is “inactive”; the “p53 activation efficacy, primary screening” value is “inactive”. For the same compound, in experiment [3], the “p53 activation EC50, cherry pick confirmation” value was “inactive”; the “p53 activation EC50, primary screening” value is “inactive”; the “p53 activation efficacy, cherry pick confirmation” value was “inactive”; the “p53 activation efficacy, primary screening” value was “inactive”. In addition, in the experiment with p53RE-bla HCT-116 cells, the “Viability EC50, cherry pick confirmation” value is “inactive”; the “Viability EC50, primary screening” value was “inactive”; the “Viability efficacy, primary screening” value is “inactive”. In addition, the EC50 with p53RE-bla HCT-116 cells (read-out: Viability EC50, cherry pick confirmation) was determined as 43.2 µM.

Take `Cc1cccc2sc3nncn3c12` [2,7,8,9-Tricyclazole]: the “p53 activation EC50” value in experiment [1], in experiment [2] and in experiment [3] was “inactive” throughout. Also, the p53 activation efficacy entry in experiment [1] is “inactive”. For the same compound, the “Viability EC50” value with p53RE-bla HCT-116 cells was “inactive”. In addition, the Viability efficacy entry in the experiment with p53RE-bla HCT-116 cells was “inactive”.

Regarding `O=C(Nc1cccc(Cl)c1)OCC#CCCl` [Barban], in experiment [1] (setting [5]), the EC50 turned out to be 32.3 µM. Also, in experiment [1] (setting [6]), the EC50 was 19 µM. For the same compound, in experiment [1] (setting [7]), the Emax was 46.3%. Also, the Emax in experiment [1] (setting [8]) was found to be 37.2%. In addition, in experiment [2], the “p53 activation EC50, cherry pick confirmation” value is “inactive”; the “p53 activation EC50, primary screening” value is “inactive”; the “p53 activation efficacy, cherry pick confirmation” value is “inactive”; the “p53 activation efficacy, primary screening” value is “inactive”. Further, in experiment [3], the “p53 activation EC50, cherry pick confirmation” value was “inactive”; the “p53 activation EC50, primary screening” value was “inactive”; the “p53 activation efficacy, cherry pick confirmation” value was “inactive”; the “p53 activation efficacy, primary screening” value was “inactive”. Moreover, in the experiment with p53RE-bla HCT-116 cells, the “Viability EC50, cherry pick confirmation” value was “inactive”; the “Viability EC50, primary screening” value was “inactive”; the “Viability efficacy, cherry pick confirmation” value is “inactive”; the “Viability efficacy, primary screening” value is “inactive”.

Take `C[C@H]1O[C@@H](n2cc(F)c(=O)[nH]c2=O)[C@H](O)[C@@H]1O` [Doxifluridine]: in experiment [1], the “EC50, p53 activation, cherry pick confirmation” value is “inactive” and the “Efficacy, p53 activation, cherry pick confirmation” value is “inactive”. In addition, the EC50 in experiment [1] (Homo sapiens, HCT-116, read-out: EC50, p53 activation, primary screening) was found to be 10.6 µM. Moreover, the Emax in experiment [1] (Homo sapiens, HCT-116, read-out: Efficacy, p53 activation, primary screening) was determined as 83.9%. Also, in experiment [2], the “EC50, p53 activation, cherry pick confirmation” value was “inactive”; the “EC50, p53 activation, primary screening” value was “inactive”; the “Efficacy, p53 activation, cherry pick confirmation” value was “inactive”; the “Efficacy, p53 activation, primary screening” value is “inactive”. For the same compound, in experiment [3], the “EC50, p53 activation, cherry pick confirmation” value was “inactive”; the “EC50, p53 activation, primary screening” value was “inactive”; the “Efficacy, p53 activation, cherry pick confirmation” value was “inactive”; the “Efficacy, p53 activation, primary screening” value is “inactive”. Further, in the experiment on p53RE-bla HCT-116 cells, the “EC50, viability, cherry pick confirmation” value is “inactive”; the “EC50, viability, primary screening” value was “inactive”; the “Efficacy, viability, cherry pick confirmation” value was “inactive”; the “Efficacy, viability, primary screening” value is “inactive”.

On to `CCOP(=O)(OCC)Oc1ccc([N+](=O)[O-])cc1` [Paraoxon], for which, in experiment [1], the “p53 activation EC50, cherry pick confirmation” value is “inactive”; the “p53 activation EC50, primary screening” value is “inactive”; the “p53 activation efficacy, cherry pick confirmation” value is “inactive”; the “p53 activation efficacy, primary screening” value was “inactive”. Moreover, in experiment [2], the “p53 activation EC50, cherry pick confirmation” value is “inactive” and the “p53 activation efficacy, cherry pick confirmation” value is “inactive”. Besides, in experiment [3], the “p53 activation EC50, cherry pick confirmation” value was “inactive” and the “p53 activation efficacy, cherry pick confirmation” value is “inactive”. In addition, in the experiment on p53RE-bla HCT-116 cells, the “Viability EC50, cherry pick confirmation” value is “inactive”; the “Viability EC50, primary screening” value is “inactive”; the “Viability efficacy, cherry pick confirmation” value is “inactive”; the “Viability efficacy, primary screening” value is “inactive”.

On to `Cl.O.c1cnc2c(c1)ccc1cccnc12`, for which, in experiment [1], the “Efficacy, p53 activation, cherry pick confirmation” value was 70.9047 and the “Efficacy, p53 activation, primary screening” value is reported as 35.453. Also, in experiment [1] (read-out: EC50, p53 activation, cherry pick confirmation), the EC50 came to 50.2 µM. In addition, in experiment [1] (read-out: EC50, p53 activation, primary screening), the EC50 amounted to 25.8 µM. Also, in experiment [2], the “EC50, p53 activation, cherry pick confirmation” value was “inactive”; the “EC50, p53 activation, primary screening” value was “inactive”; the “Efficacy, p53 activation, cherry pick confirmation” value is “inactive”; the “Efficacy, p53 activation, primary screening” value was “inactive”. In experiment [3], the “EC50, p53 activation, cherry pick confirmation” value is “inactive”; the “EC50, p53 activation, primary screening” value was “inactive”; the “Efficacy, p53 activation, cherry pick confirmation” value was “inactive”; the “Efficacy, p53 activation, primary screening” value was “inactive”. Besides, in the experiment with p53RE-bla HCT-116 cells, the “EC50, viability, cherry pick confirmation” value is “inactive”; the “EC50, viability, primary screening” value was “inactive”; the “Efficacy, viability, primary screening” value was “inactive”. In the experiment with p53RE-bla HCT-116 cells (read-out: EC50, viability, cherry pick confirmation), the EC50 came to 22.1 µM.

On to `O=C(N/N=C/c1ccc([N+](=O)[O-])o1)c1ccc(O)cc1` [Nifuroxazide], for which the EC50 in experiment [1] (setting [5]) is 10.2 µM. Besides, the 50% effective concentration (EC50) in experiment [1] (setting [6]) was found to be 19.6 µM. Also, the Emax in experiment [1] (setting [7]) was 47.4%. Also, the Emax in experiment [1] (setting [8]) was found to be 39.6%. Further, in experiment [2], the “p53 activation EC50, cherry pick confirmation” value is “inactive”; the “p53 activation EC50, primary screening” value was “inactive”; the “p53 activation efficacy, cherry pick confirmation” value is “inactive”; the “p53 activation efficacy, primary screening” value is “inactive”. Also, in experiment [3], the “p53 activation EC50, cherry pick confirmation” value is “inactive”; the “p53 activation EC50, primary screening” value is “inactive”; the “p53 activation efficacy, cherry pick confirmation” value is “inactive”; the “p53 activation efficacy, primary screening” value was “inactive”. In the experiment on p53RE-bla HCT-116 cells, the “Viability EC50, cherry pick confirmation” value was “inactive”; the “Viability EC50, primary screening” value is “inactive”; the “Viability efficacy, cherry pick confirmation” value was “inactive”; the “Viability efficacy, primary screening” value is “inactive”.
